From US20240269104A1, “METHOD FOR TREATING PARKINSON'S DISEASE” (Olatec Therapeutics, Inc., priority 2021, published 2024)

Legend:
[1] = system: MPTP-injected-mouse model of PD; test: accelerating rotarod test after MPTP-acute administration; format: in vivo, C56BL/J mice
Description: MPTP (Sigma-Aldrich, St. Louis, MO) can be administered at two dose regimens: acute and sub-acute. For the acute regimen, MPTP was administered intraperitoneally (i.p.) four times in one day. Administrations were performed every two hours over an eight-hour period. For the subacute regimen, mice received a single i.p. administration of MPTP per day for five consecutive days. A 20 mg/kg free-base MPTP dose was used for every dose in both models. Sterile saline was used as the vehicle. Control mice were injected with saline solution using the same administration protocol and were defined as sham. Mice were sacrificed at different days after the first injection of MPTP. We used the acute protocol in C56BL/J mice to study dopamine neurodegeneration, inflammation, and motor deficits, whereas the subacute model was used to evaluate α-synuclein aggregation in the following examples. […]
The accelerating rotarod (Ugo Basile, Gemonio, ITALY) was used to evaluate locomotor function in mice subjected to the MPTP-acute administration. An accelerating program was selected to detect locomotor impairments associated to MPTP (Keshet et al, J Comp Neurol 504:690-701, 2007; Rui et al., Int J Neuropsychopharmacol., 2020). We used a rotarod device with a cylinder rod of three centimeters in diameter. The mice underwent a training period of three consecutive days prior to MPTP administration. In each training session, mice were subjected to run at four constant speeds (10 rpm, 20 rpm, 30 rpm, and 40 rpm) for 150 seconds at each speed. If mice fell during that time, they were put back in the rotarod immediately. On the testing day, we used an increased-speed program. Mice were placed on the rotarod device for 150 seconds at 30 rpm as warm up. Immediately after 150 seconds, the accelerating session started, and the speed increased from 30 rpm to 70 rpm for 500 seconds. Time to fall was recorded. Accelerating sessions were repeated three times with a resting interval of five minutes between sessions. Average time to fall per mouse was calculated and used as final measurement.
We then evaluated the effect of dapansutrile. To avoid overloading animals with fluid (which can lead to fatal heart failure), dapansutrile was administered through oral gavage at 200 mg/kg in water. Dapansutrile was given 30 minutes before the first injection of MPTP. Mice treated with saline were used as control. We also included a sham-group that received saline through intraperitoneal injections instead of MPTP. […]

TNFα = TNFα RNA in the brain by qPCR after MPTP; format: in vivo, mice; conditions: 200 mg/kg oral gavage; striatum piece, 24 hours after first MPTP injection
Description: Mice were treated dapansutrile or saline and injected with MPTP as described in Example 2.
24 hours after the first injection of MPTP, mice were sacrificed. A piece of brain, centered in the striatum, was taken from each mouse and frozen in liquid nitrogen. Samples were homogenized with Trizol lysis reagent (Thermo Fisher) following the manufacturer's protocol. 1 μg of RNA from each sample was reversely transcribed using the High-Capacity Reverse Transcription kit (Applied BioSystems).
Gene expression measures were performed through qPCR using SYBR Green master mix (Applied Biosystems) and recommended thermal cycling parameters: 1 cycle of polymerase activation for 10 min at 95° C. and 40 cycles of denaturalization for 15 sec at 95° C. plus annealing/extension for 1 min at 60° ° C. (capture). Gene levels of TNFα (a pro-inflammatory cytokine) were normalized to the relation ratio of expression of the GADPH gene following the ΔΔCT method. Primers sequences are detailed below. Final fold-change values were obtained by normalization with naïve condition.

IL-18 = IL-18 in brain homogenates by ELISA after MPTP; format: in vivo, mice
Description: Mice were treated with dapansutrile or saline and injected with MPTP as described in Example 2.
At three days after MPTP, mice were sacrificed and levels of IL-18 in the brain were measured. Briefly, the brain was removed from the mouse and a piece of the striatum was homogenized. Levels of proteins were normalized to 2 mg/ml and IL-18 was measured using the mouse IL-18 ELISA from R and D Systems.
(§1) It has been reported that administration of MPTP induces the assembly of NLPR3 inflammasome in the brain. Mice were sacrificed after anesthesia by cervical dislocation at 4 and 7 days after MPTP administration. Brains were collected, and the striatum (St) and ventral midbrain (VM) areas of both hemispheres were excised and frozen in liquid nitrogen. Samples were homogenized in RIPA buffer (Thermo Fisher, Waltham, MA) supplemented with protease inhibitor (Thermo Fisher) using a TissueRuptor (Qiagen, Germantown, MD). Protein concentration was determined using a BCA Protein Assay Kit (Thermo Fisher) according to manufacturer's instructions. Samples were diluted to 2 mg/ml in the same extraction buffer.
(§2) Levels of IL-1β, IL-18, IL-6, and IL-17A from brain homogenates were measured by ELISA DuoSet kit (R&D Systems, Minneapolis, MN). ELISA kit for IL-1β detects 92-95% of the 17 kDa form and only 8-5% of the precursor form of this cytokine. 96-well plates (ThermoFisher Scientific) were coated with capture antibody. Samples were incubated for two hours at room temperature. Detection antibodies and streptavidin-HRP were added. TMB ELISA (cBioscience, San Diego, CA) was used as substrate solution. Results were measured in a microplate reader (Bio-Tek, Santa Clara, CA). Final values were normalized by the protein concentration of each sample. 4-5 mice per group were used for each cytokine.

IL-1β = IL-1β in brain homogenates by ELISA after MPTP; format: in vivo, mice; conditions: 200 mg/kg once each day; 4 days after MPTP-acute
Description: as §1, §2

[2] = system: white blood cells, lymphocytes, monocytes, and granulocytes; test: peripheral blood cell counts after MPTP-acute administration; format: in vivo, mice; conditions: 200 mg/kg, day seven after MPTP-acute
Description: (§3) Seven days after MPTP-acute administration, peripheral blood and spleen were isolated from each mouse, and hematological changes in the peripheral blood and cytokine production in the spleen were evaluated. […] White blood cells, lymphocytes, monocytes, and granulocytes were measured from the peripheral blood using a HemaTrue cell counter (Heska, Loveland, CO). Spleens were isolated and mechanically passed through a 70 μm cell strainer (ThermoFisher) in PBS. Cells were plated in a 96-well plate at a concentration of 200,000 cells/well in RPMI medium (Coring, New York, NY) with 10% FBS. After that, cells were stimulated with LPS at 1 μg/ml and 5 μg/ml. RPMI medium was used as control. After 72 hours, supernatant was isolated to measure the levels of IL-6. Cells were lysed with RIPA buffer (ThermoFisher) supplemented with protease inhibitor (ThermoFisher) to measure IL-1α levels. In both cases, 5-6 mice per group were used.

IL-1α = IL-1α in LPS-stimulated cultured splenocytes from MPTP-injected mice; format: in vivo; conditions: mice treated 200 mg/kg for seven days; splenocytes cultured with LPS, cell lysate
Description: as §3

[3] = 200 mg/kg once a day, three days after MPTP-acute
[4] = 200 mg/kg oral gavage 30 minutes before first MPTP injection, day 3 after MPTP
[5] = 200 mg/kg once each day, four days after MPTP-acute

## CS(=O)(=O)CCC#N [dapansutrile, 3-methanesulfonylpropionitrile]
[1]; 60 mg/kg once a day, three days after MPTP-acute
  time to fall on accelerating rotarod versus MPTP+saline: did not show any significant improvement
[1]; [3]
  mice that reached 8 cm/s on the rotarod: 7%
  mice that reached the 7 cm/s speed on the rotarod: approximately 50%
  time to fall on accelerating rotarod versus MPTP+saline: doubling
  time to fall on accelerating rotarod versus sham mice: nearly the same as the sham mice
[1]; [4]
  rotarod latency to fall, difference against sham group: not significant differences
  time on the rotarod more than mice treated with water (latency to fall): around 90 seconds
TNFα
  expression of TNFα RNA in the brain: reduces the expression of TNFα RNA in the brain
IL-18; [5]
  levels of IL-18 in the ventral midbrain (VM): no changes associated to dapansutrile
  reduction in the levels of IL-18 in the striatum (St) versus MPTP mice treated with saline: 15%
IL-18; 200 mg/kg oral gavage, striatum, three days after MPTP
  levels of IL-18 in the brain in comparison with mice treated with water: reduced the levels of IL-18 in the brain
IL-1β
  levels of IL-1β in the ventral midbrain (VM): no changes associated to dapansutrile
  reduction of levels of IL-1β in the striatum (St): 24%
[2]
  increase in number of circulating granulocytes: 33%
  increase in number of circulating lymphocytes: 24%
IL-1α
  reduction of the level of intracellular IL-1α in splenocytes: 40%
